# Source: PMC6522510 (Nature Communications, 2019)
# Where a name gives a salt, the structure may show the parent alone. Read-outs that look alike come from different tables or passages of the source.
# Legend:
# Parameters in all cases: species or system AML cell lines (8); Primary HTS, single concentration about 10 uM, Cell Titer Glo viability; log10 luminescence, per cent inhibition relative to cycloheximide control
# Conditions in all cases: 72 h, inhibitor
# ML-2 = test system: ML-2
# MOLM-13 = test system: MOLM-13
# CMK = test system: CMK
# U937 = test system: U937
# CMS = test system: CMS
# M07e = test system: M07e
# MV4-11 = test system: MV4-11
# CHRF288-11 = test system: CHRF288-11
# [1] = relative to cycloheximide control, log10 luminescence, ML-2 %inh, 10 µM
# [2] = relative to cycloheximide control, log10 luminescence, MOLM-13 %inh, 10 µM
# [3] = relative to cycloheximide control, log10 luminescence, CMK %inh, 10 µM
# [4] = relative to cycloheximide control, log10 luminescence, U937 %inh, 10 µM
# [5] = relative to cycloheximide control, log10 luminescence, CMS %inh, 10 µM
# [6] = relative to cycloheximide control, log10 luminescence, M07e %inh, 10 µM
# [7] = relative to cycloheximide control, log10 luminescence, MV4-11 %inh, 10 µM
# [8] = relative to cycloheximide control, log10 luminescence, CHRF288-11 %inh, 10 µM
# [9] = relative to cycloheximide control, log10 luminescence
Structure (SMILES),ML-2 %inh (ML-2; [1]),MOLM-13 %inh (MOLM-13; [2]),CMK %inh (CMK; [3]),U937 %inh (U937; [4]),CMS %inh (CMS; [5]),M07e %inh (M07e; [6]),MV4-11 %inh (MV4-11; [7]),CHRF288-11 %inh (CHRF288-11; [8]),ML-2 %inh (ML-2; [9]),MOLM-13 %inh (MOLM-13; [9]),CMK %inh (CMK; [9]),U937 %inh (U937; [9]),CMS %inh (CMS; [9]),M07e %inh (M07e; [9]),MV4-11 %inh (MV4-11; [9]),CHRF288-11 %inh (CHRF288-11; [9]),further results
"CC(=O)/N=c1/sc(S(N)(=O)=O)nn1C [SJ000285971-4, METHAZOLAMIDE]",1.069%,1.468%,-8.28%,-0.6609%,-3.008%,-2.489%,-0.9248%,-2.381%,–,–,–,–,–,–,–,–,–
"CC(=O)/N=c1/sc(S(N)(=O)=O)nn1C [SJ000285971-5, METHAZOLAMIDE]",3.001%,0.5424%,-2.598%,-1.329%,-3.489%,-1.211%,-3.681%,-3.176%,–,–,–,–,–,–,–,–,–
"COc1ccc(OC)c(C(O)CNC(=O)CN)c1 (stereo not drawn) [SJ000285975-4, MIDODRINE HYDROCHLORIDE]",–,–,–,–,–,–,–,–,3.423%,-0.9656%,-2.727%,-2.394%,-2.587%,0.8303%,0.5881%,5.586%,–
"CC(=O)CCCCn1c(=O)c2c(ncn2C)n(C)c1=O [SJ000285992-7, PENTOXIFYLLINE]",–,–,–,–,–,–,–,–,-1.777%,0.7772%,2.352%,-1.659%,-0.2539%,-1.002%,4.085%,-2.356%,–
"CCC(=O)O[C@]1(C(=O)CCl)[C@@H](C)C[C@H]2[C@@H]3CCC4=CC(=O)C=C[C@]4(C)[C@@]3(F)[C@@H](O)C[C@@]21C [SJ000286006-4, CLOBETASOL PROPIONATE]",–,–,–,–,–,–,–,–,4.272%,8.361%,12.78%,16.72%,4.642%,3.893%,4.125%,12.55%,–
"OCCN1CCN(CCCN2c3ccccc3Sc3ccc(Cl)cc32)CC1 [SJ000286016-7, PERPHENAZINE]",-0.4093%,-1.496%,1.286%,-2.208%,1.171%,0.915%,1.352%,-1.811%,–,–,–,–,–,–,–,–,–
"OCCN1CCN(CCCN2c3ccccc3Sc3ccc(Cl)cc32)CC1 [SJ000286016-8, PERPHENAZINE]",2.921%,2.324%,10.21%,5.279%,3.223%,5.089%,2.594%,40.76%,–,–,–,–,–,–,–,–,–
"OC(Cn1cncn1)(Cn1cncn1)c1ccc(F)cc1F [SJ000286024-3, FLUCONAZOLE]",–,–,–,–,–,–,–,–,-1.511%,-1.868%,-0.02108%,1.624%,-4.097%,-2.445%,0.2312%,-3.189%,–
"CC[C@H]1OC(=O)[C@H](C)[C@@H](O[C@H]2C[C@@](C)(OC)[C@@H](O)[C@H](C)O2)[C@H](C)[C@@H](O[C@@H]2O[C@H](C)C[C@H](N(C)C)[C@H]2O)[C@](C)(O)C[C@@H](C)[C@@H]2N[C@@H](COCCOC)O[C@H]([C@H]2C)[C@]1(C)O [SJ000286040-4, DIRITHROMYCIN]",–,–,–,–,–,–,–,–,–,–,–,–,–,–,–,–,ML-2 %inh (ML-2; 10 µM): 0.363%; MOLM-13 %inh (MOLM-13; 10 µM): 5.018%; CMK %inh (CMK; 10 µM): -6.058%; U937 %inh (U937; 10 µM): 3.436%; CMS %inh (CMS; 10 µM): -2.389%; M07e %inh (M07e; 10 µM): -2.158%; MV4-11 %inh (MV4-11; 10 µM): -1.547%; CHRF288-11 %inh (CHRF288-11; 10 µM): 3.605%
"CC[C@H]1OC(=O)[C@H](C)[C@@H](O[C@H]2C[C@@](C)(OC)[C@@H](O)[C@H](C)O2)[C@H](C)[C@@H](O[C@@H]2O[C@H](C)C[C@H](N(C)C)[C@H]2O)[C@](C)(O)C[C@@H](C)[C@@H]2N[C@@H](COCCOC)O[C@H]([C@H]2C)[C@]1(C)O [SJ000286040-5, DIRITHROMYCIN]",–,–,–,–,–,–,–,–,–,–,–,–,–,–,–,–,ML-2 %inh (ML-2; 10 µM): -0.7146%; MOLM-13 %inh (MOLM-13; 10 µM): -2.496%; CMK %inh (CMK; 10 µM): -5.982%; U937 %inh (U937; 10 µM): -1.919%; CMS %inh (CMS; 10 µM): -0.1114%; M07e %inh (M07e; 10 µM): -2.366%; MV4-11 %inh (MV4-11; 10 µM): -3.548%; CHRF288-11 %inh (CHRF288-11; 10 µM): 3.137%
"CC[C@H]1OC(=O)[C@H](C)[C@@H](O[C@H]2C[C@@](C)(OC)[C@@H](O)[C@H](C)O2)[C@H](C)[C@@H](O[C@@H]2O[C@H](C)C[C@H](N(C)C)[C@H]2O)[C@](C)(OC)C[C@@H](C)C(=O)[C@H](C)[C@@H](O)[C@]1(C)O [SJ000286061-3, CLARITHROMYCIN]",2.326%,2.582%,1.841%,1.585%,-1.005%,0.43%,1.904%,-0.08051%,–,–,–,–,–,–,–,–,–
"CC[C@H]1OC(=O)[C@H](C)[C@@H](O[C@H]2C[C@@](C)(OC)[C@@H](O)[C@H](C)O2)[C@H](C)[C@@H](O[C@@H]2O[C@H](C)C[C@H](N(C)C)[C@H]2O)[C@](C)(OC)C[C@@H](C)C(=O)[C@H](C)[C@@H](O)[C@]1(C)O [SJ000286061-4, CLARITHROMYCIN]",-1.428%,0.6227%,-0.3654%,1.816%,4.035%,4.017%,1.784%,4.27%,–,–,–,–,–,–,–,–,–
"COc1c(N2CCNC(C)C2)c(F)cc2c(=O)c(C(=O)O)cn(C3CC3)c12 (stereo not drawn) [SJ000286066-3, GATIFLOXACIN]",–,–,–,–,–,–,–,–,1.743%,8.563%,1.598%,2.127%,-1.278%,0.9683%,-0.7209%,7.116%,–
"CC(=O)OCC(CCn1cnc2cnc(N)nc21)COC(C)=O [SJ000286077-3, FAMCICLOVIR]",–,–,–,–,–,–,–,–,-0.1732%,3.343%,3.857%,2.68%,3.04%,-1.801%,1.495%,-0.6265%,–
"O=C1[C@H](CC[C@H](O)c2ccc(F)cc2)[C@@H](c2ccc(O)cc2)N1c1ccc(F)cc1 [SJ000286078-3, EZETIMIBE]",–,–,–,–,–,–,–,–,2.139%,5.807%,3.95%,5.441%,1.706%,4.29%,0.198%,8.692%,–
